Experimental data reported in patent US20060069132A1, “Azolecarboxamide herbicides” (priority 2004, published 2006).

What was measured:
[1] = test system: barnyardgrass; test: Test B pre-/postemergence herbicide test; assay type: in vivo, Echinochloa crus-galli
Method in brief: (§1)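 Response was scored visually 13 to 15 days after treatment against untreated greenhouse controls, 0 meaning no effect and 100 complete control. Formulations (solvent mixture plus surfactant) went onto soil after planting, onto foliage of 1- to 4-leaf plants, and onto 2-leaf plants in a flooded paddy set including rice and barnyardgrass.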

[2] = test system: cocklebur; test: Test B pre-/postemergence herbicide test; assay type: in vivo, Xanthium strumarium
Method in brief: as §1

[3] = test system: corn; test: Test B pre-/postemergence herbicide test; assay type: in vivo, Zea mays
Method in brief: (§2)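 Evaluation is visual, comparing treated with control plants on a scale where 0 means no effect and 100 means full control. Treatments were preemergence, or postemergence on seedlings 2–18 cm tall, and held 13–15 days in the greenhouse.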

[4] = test system: giant foxtail; test: Test B pre-/postemergence herbicide test; assay type: in vivo, Setaria faberi
Method in brief: as §2

[5] = test system: lambsquarters; test: Test B pre-/postemergence herbicide test; assay type: in vivo, Chenopodium album
Method in brief: as §2

[6] = test system: morningglory; test: Test B pre-/postemergence herbicide test; assay type: in vivo, Ipomoea coccinea
Method in brief: as §1

[7] = test system: pigweed; test: Test B pre-/postemergence herbicide test; assay type: in vivo, Amaranthus retroflexus
Method in brief: as §2

[8] = test system: velvetleaf; test: Test B pre-/postemergence herbicide test; assay type: in vivo, Abutilon theophrasti
Method in brief: as §2

[9] = test system: blackgrass; test: Test B postemergence herbicide test; assay type: in vivo, Alopecurus myosuroides; conditions: for Plant response rating, Blackgrass: visual rating after 13 to 15 days
Method in brief: (§3)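 Visual control ratings, 0–100 versus untreated controls, taken after 13 to 15 days in the greenhouse. Blackgrass received a postemergence spray at the 1- to 4-leaf stage (2–18 cm); ducksalad, umbrella sedge and barnyardgrass were flooded-paddy treated at 2 leaves.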

[10] = test system: wheat; test: Test B postemergence herbicide test; assay type: in vivo, Triticum aestivum; parameters: key to Wheat plant response rating: 0 = no effect, 100 = complete control; conditions: for Plant response rating, Wheat: Postemergence, visual rating after 13 to 15 days; for Wheat plant response rating: postemergence
Method in brief: (§4)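 Plants grow to 1- to 4-leaf stage (2–18 cm) for postemergence spraying, or to 2-leaf stage for the paddy test. Formulated compound is applied. Greenhouse holding lasts 13–15 days. Response is scored visually relative to controls, 0 no effect to 100 complete control; a dash means no result.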

[11] = test system: wild oat; test: Test B postemergence herbicide test; assay type: in vivo, Avena fatua; conditions: for Plant response rating, Oat, Wild: visual rating after 13 to 15 days
Method in brief: as §4

[12] = test system: rice; test: Test B flooded paddy test; assay type: in vivo, Oryza sativa; conditions: 1000 g ai/ha, scale 0 to 100 (0 no effect, 100 complete control)
Method in brief: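 Each value is a visual 0–100 response rating taken against controls 13 to 15 days after treatment in the greenhouse. Plants received formulated chemical postemergence at the 1- to 4-leaf stage or, in flooded paddy, at the 2-leaf stage.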

[13] = test system: small flower umbrella sedge; test: Test B flooded paddy test; assay type: in vivo, Cyperus difformis; conditions: 1000 g ai/ha, scale 0 to 100 (0 no effect, 100 complete control)
Method in brief: as §3

[14] = test system: ducksalad; test: Test B flooded paddy test; assay type: in vivo, Heteranthera limosa; conditions: 1000 g ai/ha, scale 0 to 100 (0 no effect, 100 complete control)
Method in brief: as §3

[15] = test system: barnyardgrass; test: Test B flooded paddy test; assay type: in vivo, Echinochloa crus-galli; conditions: 1000 g ai/ha, scale 0 to 100 (0 no effect, 100 complete control)
Method in brief: as §3

[16] = Postemergence, 125 g ai/ha, scale 0 (no effect) to 100 (complete control)
[17] = Postemergence, 500 g ai/ha, visual rating after 13 to 15 days, scale 0 (no effect) to 100 (complete control)
[18] = Preemergence, 500 g ai/ha, scale 0 to 100
[19] = preemergence, 125 g ai/ha, 0 to 100 scale, 0 is no effect, 100 is complete control
[20] = Postemergence, 500 g ai/ha, scale 0 (no effect) to 100 (complete control)
[21] = 500 g ai/ha, scale 0 (no effect) to 100 (complete control)
[22] = 125 g ai/ha, 0 = no effect, 100 = complete control, preemergence
[23] = 125 g ai/ha, visual rating, scale 0 (no effect) to 100 (complete control), postemergence
[24] = 500 g ai/ha, visual rating, 0 = no effect, 100 = complete control, preemergence
[25] = postemergence, 500 g ai/ha, scale 0 to 100, 0 is no effect, 100 is complete control

CCn1nc(C(C)(C)C)cc1C(=O)Nc1cccc(C(=O)NCCF)c1 [Compound 45]
80: Plant response rating, Cocklebur [2, 17] | Cocklebur plant response rating [2, 18] | Lambsquarters plant response rating [5, 16] | Ducksalad plant response rating ([14]; visual rating, 13 to 15 days) | Barnyardgrass plant response rating ([15]; visual rating, 13 to 15 days)
0: Oat, Wild plant response rating [11, 16]
10: Plant response rating, Foxtail, Giant [4, 19] | Plant response rating, Morningglory [6, 19] | Blackgrass plant response rating [9, 16]
90: Plant response rating, Lambsquarters [5, 17] | Plant response rating, Morningglory [6, 17]
70: Plant response rating, Velvetleaf [8, 17] | Rice plant response rating ([12]; visual rating, 13 to 15 days) | Sedge, Umbrella plant response rating ([13]; visual rating, 13 to 15 days)
30: Plant response rating, Barnyardgrass [1, 17] | Plant response rating, Corn [3, 17] | Corn plant response rating [3, 18] | Plant response rating, Foxtail, Giant [4, 17] | Morningglory plant response rating [6, 18] | Plant response rating, Wheat [10, 21]
100: Barnyardgrass plant response rating [1, 18] | Foxtail, Giant plant response rating [4, 18] | Lambsquarters plant response rating [5, 18] | Plant response rating, Lambsquarters [5, 19] | Plant response rating, Pigweed [7, 17] | Pigweed plant response rating [7, 18] | Plant response rating, Pigweed [7, 19] | Velvetleaf plant response rating [8, 18]
20: Barnyardgrass plant response rating [1, 16] | Cocklebur plant response rating [2, 16] | Corn plant response rating [3, 16] | Foxtail, Giant plant response rating [4, 16] | Plant response rating, Velvetleaf [8, 19] | Plant response rating, Blackgrass [9, 20] | Plant response rating, Oat, Wild [11, 20]
40: Morningglory plant response rating [6, 16]

CCn1nc(C(C)(C)C)cc1C(=O)Nc1cncc(C(=O)N2CC=CC2)n1 [Compound 290]
30: Blackgrass plant response rating [9, 25] | Wheat plant response rating ([10]; 500 g ai/ha, scale 0 to 100, 0 is no effect, 100 is complete control)
100: Lambsquarters plant response rating (0 to 100 scale) [5, 22] | Plant response rating, Lambsquarters [5, 24] | Plant response rating, Pigweed [7, 24]
10: Cocklebur plant response rating [2, 25] | Corn plant response rating [3, 25] | Foxtail, Giant plant response rating (0 to 100 scale) [4, 22] | Lambsquarters plant response rating [5, 23] | Pigweed plant response rating [7, 23] | Pigweed plant response rating [7, 25] | Velvetleaf plant response rating [8, 25]
40: Oat, Wild plant response rating [11, 25]
80: Plant response rating, Barnyardgrass [1, 24] | Plant response rating, Foxtail, Giant [4, 24]
70: Sedge, Umbrella plant response rating [13] | Ducksalad plant response rating [14] | Barnyardgrass plant response rating [15]
20: Foxtail, Giant plant response rating [4, 23] | Lambsquarters plant response rating [5, 25] | Blackgrass plant response rating [9, 23] | Wheat plant response rating ([10]; 125 g ai/ha, visual rating, scale 0 (no effect) to 100 (complete control)) | Oat, Wild plant response rating [11, 23]
60: Foxtail, Giant plant response rating [4, 25] | Rice plant response rating [12]
0: Barnyardgrass plant response rating (0 to 100 scale) [1, 22] | Barnyardgrass plant response rating [1, 23] | Barnyardgrass plant response rating [1, 25] | Cocklebur plant response rating (0 to 100 scale) [2, 22] | Cocklebur plant response rating [2, 23] | Plant response rating, Cocklebur [2, 24] | Corn plant response rating (0 to 100 scale) [3, 22] | Corn plant response rating [3, 23] | Plant response rating, Corn [3, 24] | Morningglory plant response rating (0 to 100 scale) [6, 22] | Morningglory plant response rating [6, 23] | Plant response rating, Morningglory [6, 24] | Morningglory plant response rating [6, 25] | Pigweed plant response rating (0 to 100 scale) [7, 22] | Velvetleaf plant response rating [8, 23] | Plant response rating, Velvetleaf [8, 24]

CCn1nc(C(C)(C)C)cc1C(=O)Nc1cccc(C(=O)NC2CC2)c1 [Compound 44]
90: Plant response rating, Lambsquarters [5, 17] | Plant response rating, Morningglory [6, 17]
0: Corn plant response rating [3, 18] | Plant response rating, Foxtail, Giant [4, 19] | Plant response rating, Morningglory [6, 19]
100: Barnyardgrass plant response rating [1, 18] | Lambsquarters plant response rating [5, 18] | Plant response rating, Pigweed [7, 17] | Pigweed plant response rating [7, 18] | Plant response rating, Pigweed [7, 19] | Velvetleaf plant response rating [8, 18]
30: Plant response rating, Corn [3, 17] | Plant response rating, Foxtail, Giant [4, 17] | Morningglory plant response rating [6, 16]
40: Cocklebur plant response rating [2, 16]
70: Foxtail, Giant plant response rating [4, 18] | Rice plant response rating ([12]; visual rating, 13 to 15 days) | Sedge, Umbrella plant response rating ([13]; visual rating, 13 to 15 days) | Ducksalad plant response rating ([14]; visual rating, 13 to 15 days) | Barnyardgrass plant response rating ([15]; visual rating, 13 to 15 days)
10: Morningglory plant response rating [6, 18] | Blackgrass plant response rating [9, 16]
80: Plant response rating, Cocklebur [2, 17] | Lambsquarters plant response rating [5, 16] | Plant response rating, Lambsquarters [5, 19] | Plant response rating, Velvetleaf [8, 17]
60: Plant response rating, Barnyardgrass [1, 17]
20: Barnyardgrass plant response rating [1, 16] | Cocklebur plant response rating [2, 18] | Corn plant response rating [3, 16] | Foxtail, Giant plant response rating [4, 16] | Plant response rating, Velvetleaf [8, 19] | Plant response rating, Blackgrass [9, 20] | Plant response rating, Wheat [10, 21] | Oat, Wild plant response rating [11, 16] | Plant response rating, Oat, Wild [11, 20]
